# In PMC11003488 (Journal of Enzyme Inhibition and Medicinal Chemistry, 2023):
# “And” between values parts separate entries of the source, which are not always exact repeats. Identical values can stand only once. Like-named read-outs stand apart in the source and are kept apart here.
# How the values were obtained:
# NSCLC cell lines = assay: NCI-60 SRB growth inhibition, subpanel; assay type: cell-based, human; details: for GI50: Homo sapiens
# SF-295 = assay: NCI-60 SRB growth inhibition, one-dose and five-dose; assay type: cell-based; details: Homo sapiens
# HOP-62 = assay: as above; assay type: cell-based; details: Homo sapiens
# NCI-H226 = assay: as above; assay type: cell-based; details: Homo sapiens
# [1] = tested on: WI-38 normal human fibroblast cells; assay: Cytotoxicity towards normal fibroblasts, safety index; assay type: cell-based; details: WI-38 versus cancer cell lines
# [2] = as above; assay type: cell-based, human; details: human, WI-38 normal fibroblast cells
# UACC-257 = assay: NCI-60 SRB growth inhibition, one-dose and five-dose; assay type: cell-based; details: Homo sapiens
# HT29 = assay: as above; assay type: cell-based; details: Homo sapiens
# OVCAR-4 = assay: as above; assay type: cell-based; details: Homo sapiens
# Colon cancer cell lines = assay: NCI-60 SRB growth inhibition, subpanel; assay type: cell-based, human; details: for GI50: Homo sapiens
# Melanoma cell lines = assay: NCI-60 SRB growth inhibition, subpanel; assay type: cell-based, human; details: for GI50: Homo sapiens
# Breast cancer cell lines = assay: NCI-60 SRB growth inhibition, subpanel; assay type: cell-based, human; details: for GI50: Homo sapiens
# MDA-MB-468 = assay: NCI-60 SRB growth inhibition, one-dose and five-dose; assay type: cell-based; details: Homo sapiens
# Caspase-3 [3] = assay: Protein level by ELISA assay in HCT-116; assay type: cell-based, human; details: HCT-116, IC50 of compound, 24 h, vs 0.1% DMSO
# Caspase-3 [4] = assay: Gene expression by RT-qPCR in HCT-116; details: HCT-116, 24 h, IC50 of compound; vs 0.1% DMSO; 2^-ΔΔct
# LOX IMVI = assay: NCI-60 SRB growth inhibition, one-dose and five-dose; assay type: cell-based; details: Homo sapiens
# Bax [5] = assay: Gene expression by RT-qPCR in HCT-116; details: HCT-116, 24 h
# Human VEGFR-2 = Human VEGFR-2 (Homo sapiens, UniProt P35968); assay: VEGFR-2 inhibition assay; assay type: biochemical
# DU-145 = assay: NCI-60 SRB growth inhibition, one-dose and five-dose; assay type: cell-based; details: Homo sapiens
# HCT-116 (colon cancer) [6] = assay: Cell cycle analysis by PI flow cytometry; assay type: cell-based, human; details: HCT-116, 24 h, IC50 of compound
# KM12 = assay: NCI-60 SRB growth inhibition, one-dose and five-dose; assay type: cell-based; details: Homo sapiens
# MALME-3M = assay: as above; assay type: cell-based; details: Homo sapiens
# MDA-MB-435 = assay: as above; assay type: cell-based; details: Homo sapiens
# SK-MEL-5 = assay: as above; assay type: cell-based; details: Homo sapiens
# Leukaemia cell lines = assay: NCI-60 SRB growth inhibition, subpanel; assay type: cell-based, human; details: Homo sapiens
# [7] = tested on: Ovarian cancer cell lines; assay: NCI-60 SRB growth inhibition, subpanel; assay type: cell-based, human; details: for GI50: Homo sapiens
# TNF-α = assay: Gene expression by RT-qPCR in HCT-116; details: HCT-116, 24 h, IC50 of compound; vs 0.1% DMSO; 2^-ΔΔct
# UO-31 = assay: NCI-60 SRB growth inhibition, one-dose and five-dose; assay type: cell-based; details: Homo sapiens, UO-31
# COLO 205 = assay: as above; assay type: cell-based; details: Homo sapiens
# CNS cancer cell lines = assay: NCI-60 SRB growth inhibition, subpanel; assay type: cell-based, human; details: for GI50: Homo sapiens
# MDA-MB-231/ATCC = assay: NCI-60 SRB growth inhibition, one-dose and five-dose; assay type: cell-based; details: Homo sapiens, MDA-MB-231
# Bax [8] = assay: Protein level by ELISA assay in HCT-116; assay type: cell-based, human; details: HCT-116, IC50 of compound, 24 h, vs 0.1% DMSO
# CCRF-CEM = assay: NCI-60 SRB growth inhibition, one-dose and five-dose; assay type: cell-based; details: Homo sapiens
# [9] = tested on: Prostate cancer cell lines; assay: NCI-60 SRB growth inhibition, subpanel; assay type: cell-based, human; details: for GI50: Homo sapiens
# ACHN = assay: NCI-60 SRB growth inhibition, one-dose and five-dose; assay type: cell-based; details: Homo sapiens
# SK-OV-3 = assay: as above; assay type: cell-based; details: Homo sapiens
# Renal cancer cell lines = assay: NCI-60 SRB growth inhibition, subpanel; assay type: cell-based, human; details: for GI50: Homo sapiens
# HCT-116 (colon cancer) [10] = assay: Apoptosis AV/PI assay by flow cytometry; assay type: cell-based, human; details: HCT-116, 24 h, IC50 of compound
# [11] = read-out: percent growth inhibition
# Sequence of Human VEGFR-2 (P35968 20-1356): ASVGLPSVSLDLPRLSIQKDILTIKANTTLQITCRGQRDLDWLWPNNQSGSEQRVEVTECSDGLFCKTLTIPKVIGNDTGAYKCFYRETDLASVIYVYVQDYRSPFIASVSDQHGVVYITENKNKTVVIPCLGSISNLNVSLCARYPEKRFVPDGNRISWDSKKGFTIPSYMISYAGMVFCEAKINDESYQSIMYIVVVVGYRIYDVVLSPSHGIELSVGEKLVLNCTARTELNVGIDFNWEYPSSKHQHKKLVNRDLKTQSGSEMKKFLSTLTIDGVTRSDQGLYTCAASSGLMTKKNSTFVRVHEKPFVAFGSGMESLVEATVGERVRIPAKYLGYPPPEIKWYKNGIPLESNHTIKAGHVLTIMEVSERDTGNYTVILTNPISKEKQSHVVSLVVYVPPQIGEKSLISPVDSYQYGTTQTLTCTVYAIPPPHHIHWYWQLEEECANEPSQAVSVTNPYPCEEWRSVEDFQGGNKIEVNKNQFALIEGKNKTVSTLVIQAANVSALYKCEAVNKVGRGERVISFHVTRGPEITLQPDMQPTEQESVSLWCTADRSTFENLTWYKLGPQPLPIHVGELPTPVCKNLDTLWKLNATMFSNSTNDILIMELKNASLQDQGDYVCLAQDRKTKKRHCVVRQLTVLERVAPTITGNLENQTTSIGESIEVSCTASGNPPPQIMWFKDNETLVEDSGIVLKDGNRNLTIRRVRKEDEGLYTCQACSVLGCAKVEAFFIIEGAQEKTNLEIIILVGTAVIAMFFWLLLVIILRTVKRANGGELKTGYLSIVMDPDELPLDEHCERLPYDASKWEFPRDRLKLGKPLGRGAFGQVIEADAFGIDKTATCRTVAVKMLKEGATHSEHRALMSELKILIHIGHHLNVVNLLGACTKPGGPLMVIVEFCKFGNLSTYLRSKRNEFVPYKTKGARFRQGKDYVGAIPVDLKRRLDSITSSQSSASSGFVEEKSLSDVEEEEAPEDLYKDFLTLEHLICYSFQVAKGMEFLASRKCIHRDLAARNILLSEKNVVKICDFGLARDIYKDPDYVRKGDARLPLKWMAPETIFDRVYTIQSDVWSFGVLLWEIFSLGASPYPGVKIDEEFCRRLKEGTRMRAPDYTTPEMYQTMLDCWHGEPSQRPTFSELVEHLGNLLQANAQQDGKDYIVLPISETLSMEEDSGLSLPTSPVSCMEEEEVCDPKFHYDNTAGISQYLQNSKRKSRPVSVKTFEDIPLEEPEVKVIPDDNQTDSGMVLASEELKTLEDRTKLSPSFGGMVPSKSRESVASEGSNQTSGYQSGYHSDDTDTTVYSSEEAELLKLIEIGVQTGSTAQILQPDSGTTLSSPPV
smiles,measurement,setting,value
"O=C(/C=C/c1cccnc1)c1cccc(NCc2ccc(CO)cc2)c1 [Compound 5e, (E)-1–(3-((4-(hydroxymethyl)benzyl)amino)phenyl)-3-(pyridin-3-yl)prop-2-en-1-one]",GI50,NSCLC cell lines; read-out: GI50 MG-MID,13.6 µM
same,GI50,NSCLC cell lines; read-out: MG-MID GI50,13.6 µM
same,SI (Selectivity Index),NSCLC cell lines; full panel MG-MID / NSCLC subpanel MG-MID,0.73
same,GI50,SF-295; SF-295,14.5 µM
same,inhibition at 10 µM,"SF-295; SF-295, read-out: percent growth inhibition",39.8%
same,GI50,HOP-62; HOP-62,15 µM
same,inhibition at 10 µM,"HOP-62; HOP-62, read-out: percent growth inhibition",20.7%
same,GI50,NCI-H226; NCI-H226,11.2 µM
same,inhibition at 10 µM,"NCI-H226; NCI-H226, read-out: percent growth inhibition",123%
same,Safety index,[1],>1
same,GI50 at 48 h,[2],> 100 µM
same,GI50,UACC-257; UACC-257,14.7 µM
same,inhibition at 10 µM,"UACC-257; UACC-257, read-out: percent growth inhibition",61.4%
same,GI50,HT29; HT-29,8.21 µM
same,inhibition at 10 µM,"HT29; HT-29, read-out: percent growth inhibition",173%
same,GI50,OVCAR-4; OVCAR-4,11.6 µM
same,inhibition at 10 µM,"OVCAR-4; OVCAR-4, read-out: percent growth inhibition",48.8%
same,GI50,Colon cancer cell lines; read-out: GI50 MG-MID,6.42 µM
same,GI50,Colon cancer cell lines; read-out: MG-MID GI50,6.42 µM
same,SI (Selectivity Index),Colon cancer cell lines; full panel MG-MID / Colon Cancer subpanel MG-MID,1.55
same,GI50,Melanoma cell lines; read-out: GI50 MG-MID,10.6 µM
same,GI50,Melanoma cell lines; read-out: MG-MID GI50,10.6 µM
same,SI (Selectivity Index),Melanoma cell lines; full panel MG-MID / Melanoma subpanel MG-MID,0.94
same,GI50,Breast cancer cell lines; read-out: GI50 MG-MID,7.2 µM
same,GI50,Breast cancer cell lines; read-out: MG-MID GI50,7.2 µM
same,SI (Selectivity Index),Breast cancer cell lines; full panel MG-MID / Breast Cancer subpanel MG-MID,1.38
same,GI50,MDA-MB-468; MDA-MB-468,4 µM
same,inhibition at 10 µM,"MDA-MB-468; MDA-MB-468, read-out: percent growth inhibition",153%
same,caspase-3 protein level,Caspase-3 [3],58.44 fold
same,Caspase-3 gene expression fold change,Caspase-3 [4],2.28 ± 0.14 fold
same,GI50,LOX IMVI,1.76 µM
same,inhibition at 10 µM,LOX IMVI; [11],197%
same,Bax gene expression fold change,"Bax [5]; IC50 of compound, vs 0.1% DMSO, 2^-ΔΔct",5 fold and 5.00 ± 1.1 fold
same,Bax/Bcl-2 ratio,Bax [5]; ratio of gene expression fold changes,4.5
same,IC50,Human VEGFR-2,0.37 ± 0.012 µM
same,GI50,DU-145; DU-145,12.8 µM
same,inhibition at 10 µM,"DU-145; DU-145, read-out: percent growth inhibition",55%
same,% G0-G1,HCT-116 (colon cancer) [6],30.02 ± 7.1%
same,% G2M,HCT-116 (colon cancer) [6],10.42 ± 1.7%
same,% S,HCT-116 (colon cancer) [6],10.55 ± 3.5%
same,% SubG0-G1,HCT-116 (colon cancer) [6],49.01 ± 7.2%
same,GI50,KM12; KM12,7.91 µM
same,inhibition at 10 µM,"KM12; KM12, read-out: percent growth inhibition",189%
same,GI50,MALME-3M,13.3 µM
same,inhibition at 10 µM,MALME-3M; [11],41.4%
same,GI50,MDA-MB-435; MDA-MB-435,5.26 µM
same,inhibition at 10 µM,"MDA-MB-435; MDA-MB-435, read-out: percent growth inhibition",58.7%
same,GI50,SK-MEL-5; SK-MEL-5,12.5 µM
same,inhibition at 10 µM,"SK-MEL-5; SK-MEL-5, read-out: percent growth inhibition",85.7%
same,GI50,Leukaemia cell lines; read-out: GI50 MG-MID,3.29 µM
same,GI50,Leukaemia cell lines; read-out: MG-MID GI50,3.29 µM
same,GI50,[7]; read-out: GI50 MG-MID,11.2 µM
same,GI50,[7]; read-out: MG-MID GI50,11.2 µM
same,SI (Selectivity Index),[7]; full panel MG-MID / Ovarian Cancer subpanel MG-MID,0.89
same,TNF-α gene expression fold change,TNF-α,372 fold and 372.22 ± 10.8 fold
same,GI50,UO-31,11.2 µM
same,GI50,COLO 205; COLO 205,16.3 µM
same,inhibition at 10 µM,"COLO 205; COLO 205, read-out: percent growth inhibition",37.3%
same,GI50,CNS cancer cell lines; read-out: GI50 MG-MID,12.2 µM
same,GI50,CNS cancer cell lines; read-out: MG-MID GI50,12.2 µM
same,SI (Selectivity Index),CNS cancer cell lines; full panel MG-MID / CNS Cancer subpanel MG-MID,0.82
same,GI50,MDA-MB-231/ATCC,3.75 µM
same,Bax protein level,Bax [8],3.14 fold
same,GI50,CCRF-CEM,5.17 µM
same,inhibition at 10 µM,CCRF-CEM; [11],131%
same,GI50,[9]; read-out: GI50 MG-MID,12.2 µM
same,GI50,[9]; read-out: MG-MID GI50,12.2 µM
same,SI (Selectivity Index),[9]; full panel MG-MID / Prostatic Cancer subpanel MG-MID,0.82
same,GI50,ACHN,8.07 µM
same,inhibition at 10 µM,ACHN; [11],81.6%
same,GI50,SK-OV-3; SK-OV-3,15.8 µM
same,inhibition at 10 µM,"SK-OV-3; SK-OV-3, read-out: percent growth inhibition",0.04%
same,GI50,Renal cancer cell lines; read-out: GI50 MG-MID,13 µM
same,GI50,Renal cancer cell lines; read-out: MG-MID GI50,13 µM
same,SI (Selectivity Index),Renal cancer cell lines; full panel MG-MID / Renal Cancer subpanel MG-MID,0.77
same,% Early apoptotic cells (LR),HCT-116 (colon cancer) [10],0.05 ± 0.001%
same,% Late apoptotic cells (UL),HCT-116 (colon cancer) [10],94.74 ± 8.9%
same,% Necrotic cells (UR),HCT-116 (colon cancer) [10],2.71 ± 0.33%
same,% Viable cells (LL),HCT-116 (colon cancer) [10],2.50 ± 0.12%
